Measurements as given in patent US20120040956A1, “INHIBITORS OF HIF-1 PROTEIN ACCUMULATION” (INTERMED DISCOVERY GMBH, priority 2008, published 2012).

Key:
HIF-1α protein = test: Hypoxia induced HIF-1α protein accumulation in 293T cells (immunoblotting); assay type: cell-based, human; settings: 250 nM, 1 h preincubation, hypoxia 4 h, 1% O2
Protocol: Effects of IMD-026259, IMD-026260 and IMD-019064 on the stabilisation/accumulation of HIF-1α protein were investigated. 293T cells were preincubated with the indicated concentrations of all three compounds. After 1 h of pre-incubation, 293T cells were pre-incubated with the indicated concentrations of compounds and then further incubated under normoxic or hypoxic (4 h, 1% O2) conditions respectively. After lysis of cells in 1×SDS sample buffer and sonication, the samples were analyzed for HIF-1α abundance by immunoblotting.

IKKy/NEMO = test: Cellular protein translation in 293T cells (anti-IKKy/NEMO immunoblotting); assay type: cell-based, human; settings: 10 h and 24 h; for anti-IKKy/NEMO signal (cellular protein translation): 100 nM
Protocol: 293T cells were grown in the presence of the known translation inhibitor cycloheximide (10 μg/ml) and 100 nM of IMD-019064, IMD-026259 and IMD-026260 respectively. […] Cells were harvested after 10 h and 24 h and cell lysates were produced. Equal amounts of protein contained in the cell lysates were used for immunoblotting with anti-IKKy/NEMO antibodies as shown in FIG. 12. IKKy/NEMO is a constitutively expressed relatively labile protein. Thus successful inhibition of cellular protein translation should result in significant decline of anti-IKKy/NEMO signal.

NHDF (fibroblast) = NHDF (fibroblast) spheroid sprouting/scattering in 3D collagen gel; assay type: cell-based; settings: Homo sapiens, 24 h, read-out: IC50, NHDF fibroblast spheroid sprouting/scattering
Protocol: Prior application the stock solution [100 mM] of IMD-019064 was diluted 1:10 in DMSO and serially diluted in half logarithmic steps covering the concentration range from 10 mM to 1 μM using 100% DMSO. The final assay concentration ranged from 100 μM to 10 nM with a final DMSO concentration in the assay of 1%. The experiments were pursued in modification of the originally published protocol (Korff and Augustin: J Cell Sci 112: 3249-58, 1999). In brief, spheroids were prepared as described by Korff and Augustin: J Cell Biol 143: 1341-52, 1998) by pipetting 500 endothelial cells (EC) in a hanging drop on plastic dishes to allow overnight spheroid aggregation. […]
Plates were incubated at 37° C. for 24 hours and fixed by adding 4% paraformaldehyde. The cumulative sprout length of 10 randomly selected spheroids per data point was analyzed and the relative inhibition by the test compound determined. […] Sprouting intensity of EC and fibroblast spheroids was quantitated by an image analysis system using an inverted microscope and the digital imaging software Analysis 3.2 (Soft imaging system, Munster, Germany). […] The cumulative sprout length of 10 randomly selected spheroids per data point was analyzed according to the procedure used for the HUVEC experiment. […]

HUVEC [1] = test: Spheroid-based angiogenesis assay, VEGF-A induced HUVEC sprouting; assay type: cell-based, human; settings: after hypoxic or VEGF induction, summary statement
Protocol: As described in Example 4 HUVEC spheroids were generated, cultivated and embedded in a 3D collagen gel and stimulated with Vascular Endothelial Growth Factor alpha [VEGF-A; 25 ng/ml] instead of deferoxamine. Cell spheroids were treated for 24 h with different concentrations of IMD-026259; IMD-026260; Sutent® (Sunitinib) and Sorafenib (Nexavar®) (in Molar [M], as indicated in Table 4; see also FIG. 14A).
The cumulative sprout length of 10 randomly selected spheroids per data point was analyzed and the relative inhibition by the test compound determined. Fitting of IC50 curves and calculation of IC50 values was performed with GraphPad Prism® 5.01 (trademarked by GraphPad Software Inc.). […] Results from the examples described above are summarized in FIG. 14b IC50 values are given in nM for in vitro angiogenesis (HUVEC sprouting) studies after hypoxic or VEGF induction.

HUVEC [2] = test: Spheroid-based angiogenesis assay, Deferoxamine (hypoxia) induced HUVEC sprouting; assay type: cell-based, human
Protocol: Prior application the stock solution [100 mM] of IMD-019064 was diluted 1:10 in DMSO and serially diluted in half logarithmic steps covering the concentration range from 10 mM to 1 μM using 100% DMSO. The final assay concentration ranged from 100 μM to 10 nM with a final DMSO concentration in the assay of 1%. The experiments were pursued in modification of the originally published protocol (Korff and Augustin: J Cell Sci 112: 3249-58, 1999). In brief, spheroids were prepared as described by Korff and Augustin: J Cell Biol 143: 1341-52, 1998) by pipetting 500 endothelial cells (EC) in a hanging drop on plastic dishes to allow overnight spheroid aggregation. 50 EC spheroids were then embedded in 0.9 ml of a 3D collagen matrix and pipetted into individual wells of a 24 well plate to allow polymerization.
Plates were incubated at 37° C. for 24 hours and fixed by adding 4% paraformaldehyde. The cumulative sprout length of 10 randomly selected spheroids per data point was analyzed and the relative inhibition by the test compound determined. Fitting of IC50 curves and calculation of IC50 values was performed with GraphPad Prism 5.01. Sprouting intensity of EC and fibroblast spheroids was quantitated by an image analysis system using an inverted microscope and the digital imaging software Analysis 3.2 (Soft imaging system, Munster, Germany). In parallel NHDF (fibroblast) spheroids were embedded in a 3D collagen gel and treated for 24 h with different concentrations of IMD-019064. The cumulative sprout length of 10 randomly selected spheroids per data point was analyzed according to the procedure used for the HUVEC experiment.
The same assays were performed with IMD-026260; IMD-026259; Sutent® (Sunitinib) and Sorafenib (Nexavar®) (see Table 3 for final compound concentrations).

HIF-1 = test: HIF-1-dependent luciferase reporter gene activity in 293T cells under hypoxia; assay type: cell-based, human; settings: for time-dependency of inhibition of HIF-1-dependent luciferase expression: 250 nM, added 4 hours after induction of hypoxia (8 h, 1% O2)
Protocol: A HIF-1-dependent luciferase reporter gene was transfected into 293T cells by transfection with Rotifect™ (Trademarked by Carl Roth GmbH; Karlsruhe, Germany) or alternatively into Jurkat T cells by electroporation. Both cell lines were transfected with a HIF-1-dependent reporter gene. The next day, cells were preincubated for 1 h with the indicated, submicromolar concentrations of the test compounds and then incubated for further 8 h under normoxic or hypoxic (1% O2) conditions. After that, cells were harvested followed by the analysis of luciferase activity in a luminometer.
A HIF-1-dependent luciferase reporter gene was transfected into 293T cells. The next morning, cells were pretreated for 1 h with the indicated concentrations of compounds, followed by induction of hypoxia (hypoxia chamber) for 8 h. Subsequently cells were harvested and lyzed. Luciferase activity in cell extracts was measured in a luminometer (Duo Lumat LB 9507, Berthold) by injecting 20 microliter of assay buffer to 20 microliter of extract. Light emission was measured for 10 s, relative light units are given.
After transfection of 293T cells with a HIF-1-dependent luciferase reporter gene, cells were further incubated under normoxic or hypoxic (8 h, 1% O2) conditions as shown in FIG. 4. Effectively blocking concentrations of the IMDs (250 nM each) were added either 1 hour prior to hypoxia or 2 and 4 hours after induction of hypoxia.

endothelial cells = test: Incorporation of radiolabeled amino acids into unstimulated and IL-1b-stimulated endothelial cells; assay type: cell-based
Protocol: Compounds of the formula (I) have been reported in the literature to be un-specific inhibitors of protein synthesis. Thus, the question whether IMD-019064 (a rocaglaol derivative) is a direct inhibitor of protein synthesis has been addressed at different levels. Cellular assays (incorporation of radiolabeled amino acids into unstimulated and IL-1b-stimulated endothelial cells) were performed in order to investigate if inhibition of activated signaling cascades (e.g. IL-1 signalling pathway) may contribute to inhibitory activity of IMD-019064.

[3] = tested on: cell-free protein translation (BMV mRNA, ribosomes); test: Cell-free protein translation of Brome mosaic virus (BMV) mRNA with ribosomes; assay type: biochemical; settings: for effect on in vitro protein translation: relevant (nM) concentrations, SDS-PAGE
Protocol: The effect of IMD-019064 on cell-free protein translation in vitro was investigated (see also assay principle in FIG. 8). Brome mosaic virus (BMV) mRNA encoding for 4 different viral proteins was incubated with ribosomes in the presence and absence of IMD-019064 (FIG. 9a), IMD-026259, IMD-026260 (FIG. 9b), or cycloheximide (Chx, 10 μM) (positive control) and the formed proteins analyzed by SDS-PAGE.
Panels show representative SDS-PAGE protein gels. Vehicle-containing translation reactions (Veh) represent 100% translation efficacy, while Cycloheximide (Chx; 10 μg/ml) a known inhibitor of protein translation that was used as a positive control does show significant protein reduction.

HIF-1α mRNA = test: Hif-1α mRNA expression by real-time PCR; assay type: cell-based; settings: human cells, 250 nM for 3 h, normoxic or hypoxic (45 minutes, 1% O2)
Protocol: In order to investigate whether the compounds of the invention do exert their HIF-1-1 suppressive action via inhibition of HIF-1-1 transcription the compounds were tested for their effects on HIF-1α mRNA production. In all experiments, human cells were exposed to efficiently blocking concentrations (250 nM) of the test compounds for 3 h. Then cells were further cultivated under normoxic or hypoxic conditions (45 minutes, 1% O2) respectively. Afterwards cell samples were harvested and RNA was extracted. cDNA was synthesized using specific primers and the PE Applied Biosystems Reverse Transcription Reagents. Real-time PCR was performed by using the SYBR Green I detection chemistry (Applied Biosystems) and an ABI Prism 7300 system. The expression of Hif-1α was quantified and results were normalized to Hprt1 and β-Actin (“housekeeping-gene”) expression. The relative abundance of the different genes was calculated by the comparative CT method. HIF-1α transcription of normoxic control cells was arbitrarily set to 1. […] Therefore an effect of IMD-compounds on HIF-1-dependent gene expression seems not to be mediated on HIF-1α transcription (FIG. 5).

[4] = tested on: PDK1 (pyruvate dehydrogenase kinase1); test: HIF-1 target gene PDK1 expression in 293T cells by real-time PCR; assay type: cell-based; settings: Homo sapiens, HEK-293T, 1 h pretreatment, 8 h hypoxia, read-out: IC50, suppression of endogenous PDK1 gene expression
Protocol: Human 293T cells were cultivated either under normoxic conditions or under hypoxic conditions (1% oxygen) for 4 and 8 hs respectively. Cells were harvested, followed by the isolation of RNA and the generation of cDNAs from Oligo (dT)20 primers using a Reverse Transcriptase kit. Then gene expression was measured by real-time PCR for the following two selected HIF-1α target genes: LDH-A (lactate dehydrogenase isoform A), and PDK1 (pyruvate dehydrogenase kinase1). Real-time PCR was performed with cDNA using specific primers and the SYBR Green I detection chemistry system (Applied Biosystems), utilizing an ABI Prism 7300 system. Actin was also measured as an internal control. The relative abundance of the different genes was calculated by the comparative CT method. In order to facilitate comparison, gene expression under normoxic conditions was arbitrarily set to 1 for each of the three genes. Two independent experiments confirmed PDK1 as the gene which was induced most prominently compared to LDH.
To investigate the capability of the compounds to inhibit PDK1, 293T cells were pretreated for 1 h with 3 different concentrations of the respective inhibitors (IMD-019064; IMD-026259; and IMD-026260). Subsequently, cells were incubated under normoxic/hypoxic conditions for further 8 h and the expression of PDK1 was quantified by real-time PCR as described above.

## COc1ccc(C23Oc4cc(OC)cc(OC)c4C2(O)C(O)CC3c2cccc(F)c2)cc1 (centres unmarked) [IMD-019064, (1,3,3a,8b)-3-(3-fluorophenyl)-6,8-dimethoxy-3a-(4-methoxyphenyl)-2,3,3a,8b-tetrahydro-1H-benzo[d]cyclopenta[b]furan-1,8b-diol]
HIF-1α protein
  block of HIF-1α protein accumulation: almost completely block
IKKy/NEMO
  anti-IKKy/NEMO signal (cellular protein translation): did not result in reduced anti-IKKy/NEMO signals
NHDF (fibroblast)
  IC50: 180 nM
HUVEC [1]
  inhibition of angiogenic sprouting in vitro (HUVEC sprouting): potent inhibitors of angiogenic sprouting in vitro
HUVEC [2]; Homo sapiens, HUVEC, 24 h, read-out: IC50, hypoxia induced EC (HUVEC) sprouting
  IC50: 30 nM
HUVEC [2]; NHDF IC50 versus Deferoxamine-induced HUVEC IC50
  difference in HUVEC and fibroblast sensitivity: factor six
HIF-1
  time-dependency of inhibition of HIF-1-dependent luciferase expression: able to inhibit HIF-1-dependent luciferase expression even when added 4 hours after hypoxic induction
Endothelial cells
  shift of the dose-response curve to higher concentrations, un-stimulated compared to IL-1 stimulated cells, inhibition of amino acid incorporation: 20 factor
[3]
  effect on in vitro protein translation: No significant effect
HIF-1α mRNA
  effect on Hif-1α mRNA production: did not show any effects

## OC1CC(c2ccccc2)C2(c3ccc(Cl)cc3)Oc3cc(OCCN4CCCC4)ccc3C12O (centres unmarked) [IMD-026259, (1,3a,8b)-3a-(4-chlorophenyl)-3-phenyl-6-(2-(pyrrolidin-1-yl)ethoxy)-2,3,3a,8b-tetrahydro-1H-benzo[d]cyclopenta[b]furan-1,8b-diol]
IKKy/NEMO
  anti-IKKy/NEMO signal (cellular protein translation): did not result in reduced anti-IKKy/NEMO signals
[4]
  IC50: 9 nM
HUVEC [1]
  inhibition of angiogenic sprouting in vitro (HUVEC sprouting): potent inhibitors of angiogenic sprouting in vitro
HIF-1
  time-dependency of inhibition of HIF-1-dependent luciferase expression: able to inhibit HIF-1-dependent luciferase expression even when added 4 hours after hypoxic induction
HIF-1; Homo sapiens, HEK-293T, 1 h pretreatment, hypoxia 8 h, read-out: IC50, HIF-1 luciferase inhibitory activity
  IC50: 19 nM
[3]
  effect on in vitro protein translation: No significant effect
HIF-1α mRNA
  effect on Hif-1α mRNA production: did not show any effects

## CNC(=O)c1cc(Oc2ccc(NC(=O)Nc3ccc(Cl)c(C(F)(F)F)c3)cc2)ccn1 [Nexavar, Sorafenib, reference compound]
HUVEC [2]; HUVECs induced by Deferoxamine (hypoxia)
  activity on HUVEC sprouting: did not show any activity at all

## C[C@@H]1C[C@@H]([C@H](O)CC2CC(=O)NC(=O)C2)C(=O)[C@@H](C)C1 [cycloheximide, reference compound]
IKKy/NEMO; cycloheximide 10 μg/ml
  inhibition of cellular protein translation (positive control): powerful inhibition of protein translation
[3]; cycloheximide 10 μM / 10 μg/ml
  effect on in vitro protein translation (positive control): potently suppressed formation of newly synthesized proteins
